Reference: patent publication US20060258711A1, “Treatment of drug abuse” (Wyeth, priority 2005, published 2006)

Tested on: rats
Test: Open field test of locomotor activity with or without cocaine
Type: in vivo, rat
Settings: dosed 1 hour before 5-minute open field test
Procedure: Rats were dosed either with vehicle or with cocaine in the presence or absence of Compound 1 (0.1 mg/kg. sc). One hour after dosing (i.p. & s.c.), rats were put in a open field, where distance moved and zones crossed were recorded by the ethovision program.
Animals were brought to the lab room 1 hour before the start of the experiment. Rats were injected with compound(s) 1 hour before being placed in the open field. Rats were then placed in open field, and the test lasted for five minutes.

**Q.** What does the source list for `NCC1Cc2cc(F)cc(-c3c(Cl)cccc3Cl)c2O1` (centres unmarked) [Compound 1, (7-(2,6-dichlorophenyl)-5-fluoro-2,3-dihydrobenzofuran-2-yl)methanamine]?
**A.** reversal of the hyperactivity produced by cocaine (0.1 mg/kg sc + cocaine 3 mg/kg ip, FIG. 1): completely reversed; effect on locomotor activity alone (0.1 mg/kg sc + vehicle): no effect
